Test results reported in patent US8178669B2, “Fluorescent probe for peroxynitrite” (The University of Tokyo, priority 2005, dated 2012).

What was measured:
[1] = Reaction of Compound 4 and peroxynitrite (fluorescence spectrum); conditions: 10 μmol/L Compound 4, 100 mmol/L phosphate buffer pH 7.4; peroxynitrite 1-50 μmol/L; after 60 seconds; excitation 505 nm
Protocol: A 10 μmol/L solution of Compound 4 was prepared by diluting a 20 mmol/L solution of Compound 4 in DMF with a 100 mmol/L phosphate buffer (pH 7.4). The solution was added with peroxynitrite solutions of 2 mmol/L, 5 mmol/L, 10 mmol/L, 20 mmol/L and 80 mmol/L at peroxynitrite final concentrations of 1, 2, 4, 5, 10, 20 or 50 μmol/L with stirring, and after 60 seconds, fluorescence spectrum was measured (excitation wavelength: 505 nm).

[2] = Reaction of Compound 4 and various reactive oxygen species: peroxynitrite
Protocol: (§1) A 10 μmol/L solution of Compound 4 was prepared by diluting a 20 mmol/L solution of Compound 4 in DMF with a 100 mmol/L phosphate buffer (pH 7.4), and used for the test. The prepared solution was treated under the following conditions for 3 minutes (except for (f), for which treatment time was 30 minutes).
(a) Peroxynitrite was added to make a final concentration of 10 μmol/L.
(§2) After the reaction, change of fluorescence spectrum under each condition was measured to compare reactivities of the compound with (#2) peroxynitrite, (#3) hydrogen peroxide, (#4) singlet oxygen, (#5) hydroxyl radical, (#6) hypochlorite ion, and (#7) nitrogen monoxide.

[3] = Reaction of Compound 4 and various reactive oxygen species: hydrogen peroxide; conditions: 10 μmol/L Compound 4, pH 7.4; hydrogen peroxide 1 mmol/L, 3 minutes
Protocol: as §1
(b) Hydrogen peroxide was added to make a final concentration of 1 mmol/L.
as §2

[4] = Reaction of Compound 4 and various reactive oxygen species: singlet oxygen; conditions: 10 μmol/L Compound 4, pH 7.4; hydrogen peroxide 1 mmol/L and hypochlorite ions 100 μmol/L, 3 minutes
Protocol: as §1
(c) Hydrogen peroxide and hypochlorite ions were added to make final concentrations of 1 mmol/L and 100 μmol/L, respectively.
as §2

[5] = Reaction of Compound 4 and various reactive oxygen species: hydroxyl radical; conditions: 10 μmol/L Compound 4, pH 7.4; hydrogen peroxide 1 mmol/L and iron(II) sulfate 50 μmol/L, 3 minutes
Protocol: as §1
(d) Hydrogen peroxide and iron(II) sulfate were added to make final concentrations of 1 mmol/L and 50 μmol/L, respectively.
as §2

[6] = Reaction of Compound 4 and various reactive oxygen species: hypochlorite ion; conditions: 10 μmol/L Compound 4, pH 7.4; hypochlorite ions 10 μmol/L, 3 minutes
Protocol: as §1
(e) Hypochlorite ions were added to make a final concentration of 10 μmol/L.
as §2

[7] = Reaction of Compound 4 and various reactive oxygen species: nitrogen monoxide; conditions: 10 μmol/L Compound 4, pH 7.4; NOC-13 100 μmol/L, 30 minutes
Protocol: as §1
(f) NOC-13 (nitrogen monoxide discharging agent, Dojindo Laboratory) was added to make a final concentration of 100 μmol/L.
as §2

HeLa cells = experiment: Imaging of peroxynitrite using Compound 4 in HeLa cells; type: cell-based; conditions: HeLa cells loaded with 2 μmol/L Compound 4, 20 minutes; peroxynitrite 10 μmol/L; excitation 470 to 490 nm, emission 510 to 550 nm
Protocol: HeLa cells were precultured in Dulbecco's modified Eagle's medium (DMEM) supplemented with 10% (v/v) fetal bovine serum, penicillin (100 units/mL), and streptomycin (100 μg/mL) in a 5% CO2 incubator. These HeLa cells were inoculated on a 35 mm glass bottom dish (MatTek Corporation), and further cultured overnight in DMEM. After 24 hours, the medium was removed, and the HeLa cells were washed with Hank's balanced salt solution (HBSS, 2×1 mL). The HeLa cells were added with 2 mL of 2 μmol/L solution of Compound 4 in HBSS (containing 0.01% DMF and 0.01% Cremophor EL (SIGMA) as auxiliary solvents), and incubated at room temperature for 20 minutes. Then, the HeLa cells were washed with HBSS (2×1 mL). Fluorescence images before addition of peroxynitrite and after addition of peroxynitrite at a final concentration of 10 μmol/L were photographed at an excitation wavelength of 470 to 490 nm and fluorescence emission wavelength of 510 to 550 nm.
Among the photographs, (A) is a differential interference microscope image of HeLa cells loaded with Compound 4, (B) is a pseudo color fluorescence image of fluorescence intensity before addition of peroxynitrite, (C) is a pseudo color fluorescence image of fluorescence intensity after addition of peroxynitrite, and (D) is a fused image of (A) and (B).

With `CC1=C(C#N)C(C)=[N+]2C1=C(c1ccc(O)cc1OCC(=O)O)c1c(C)c(C#N)c(C)n1[B-]2(F)F` [Compound 4, 2,6-dicyano-8-(4-hydroxy-2-carboxymethoxyphenyl)-1,3,5,7-tetramethyl-4,4-difluoro-4-bora-3a,4a-diaza-s-indacene] the “change of fluorescence intensity on addition of peroxynitrite” value [1] was “peroxynitrite addition amount-dependent increase in fluorescence intensity was observed”, the “fluorescence after addition of peroxynitrite” value ([2]; 10 μmol/L Compound 4, pH 7.4, peroxynitrite 10 μmol/L, 3 minutes) was “emitted intense fluorescence” and the “selectivity to peroxynitrite over other reactive oxygen species” value ([2]; compared with hydrogen peroxide, singlet oxygen, hydroxyl radical, hypochlorite ion, nitrogen monoxide) was “high selectivity to peroxynitrite”. For the same compound, the “fluorescence after addition of hydrogen peroxide” value [3] was “did not emit fluorescence at all”, the “fluorescence after addition of singlet oxygen” value [4] was “did not emit fluorescence at all” and the “fluorescence after addition of hydroxyl radical” value [5] was “did not emit fluorescence at all”. The “fluorescence after addition of hypochlorite ion” value [6] was “did not emit fluorescence at all”, the “fluorescence after addition of nitrogen monoxide” value [7] was “did not emit fluorescence at all” and the “fluorescence imaging of peroxynitrite in cells” value (HeLa cells) was “fluorescence imaging of peroxynitrite was performable”.
